Columns and labels:
VAPA = molecular target: T1, VAPA (Homo sapiens, UniProt Q9P0L0); assay: TPP-CCR in living HL-60 cells; assay type: cell-based
T1 construct: dose–responses (mean over replicates), derived from TPP-CCR experiments in living cells; endogenous in cells; host or cells: HL-60 cells (ATCC No. CCL-240)
T1 sequence (Q9P0L0 1-249): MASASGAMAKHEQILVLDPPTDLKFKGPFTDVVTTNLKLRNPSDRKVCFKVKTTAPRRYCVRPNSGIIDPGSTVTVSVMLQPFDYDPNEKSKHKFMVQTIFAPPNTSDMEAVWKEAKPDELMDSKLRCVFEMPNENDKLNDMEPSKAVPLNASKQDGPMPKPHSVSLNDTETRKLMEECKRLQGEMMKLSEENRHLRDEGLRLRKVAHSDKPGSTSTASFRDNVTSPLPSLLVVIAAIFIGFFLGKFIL

POR = molecular target: T2, POR (Homo sapiens, UniProt P16435); assay: TPP-CCR in living HL-60 cells; assay type: cell-based
T2 construct: endogenous in cells; host or cells: HL-60 (ATCC CCL-240)
T2 sequence (P16435 1-677): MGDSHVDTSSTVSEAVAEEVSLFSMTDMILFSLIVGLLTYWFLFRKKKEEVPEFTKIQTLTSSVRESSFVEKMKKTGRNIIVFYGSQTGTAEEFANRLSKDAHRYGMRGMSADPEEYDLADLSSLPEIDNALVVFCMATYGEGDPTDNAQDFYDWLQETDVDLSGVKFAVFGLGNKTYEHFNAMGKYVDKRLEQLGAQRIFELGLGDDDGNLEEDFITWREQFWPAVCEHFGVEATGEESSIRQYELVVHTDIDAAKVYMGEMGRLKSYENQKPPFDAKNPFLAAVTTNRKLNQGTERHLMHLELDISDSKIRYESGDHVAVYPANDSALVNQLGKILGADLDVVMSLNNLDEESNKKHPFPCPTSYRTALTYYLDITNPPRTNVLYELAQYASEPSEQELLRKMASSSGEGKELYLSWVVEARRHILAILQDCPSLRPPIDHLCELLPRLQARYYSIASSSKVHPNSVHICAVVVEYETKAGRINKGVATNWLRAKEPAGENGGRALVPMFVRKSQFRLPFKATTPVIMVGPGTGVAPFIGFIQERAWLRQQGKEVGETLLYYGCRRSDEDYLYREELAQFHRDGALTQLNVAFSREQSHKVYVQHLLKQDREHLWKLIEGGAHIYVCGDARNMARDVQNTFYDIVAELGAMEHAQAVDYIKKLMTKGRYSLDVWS

[1] = living HL-60 cells, […] °C, TMT-MS

Cc1cnc(Nc2ccc(F)cc2Cl)nc1-c1c[nH]c(C(=O)N[C@H](CO)c2cccc(Cl)c2)c1 [ERK 11e]
Hill slope (VAPA; TPP-CCR, living cells, VAPA): 0.66 | EC50 (VAPA; [1]): 1550 nM | Hill slope (VAPA) (VAPA; [1]): 0.66 | Hill slope (POR; TPP-CCR, living cells, POR): 0.73 | EC50 (POR; [1]): 1290 nM | Hill slope (POR) (POR; [1]): 0.73

From paper PMC9147192, “Small Molecule Arranged Thermal Proximity Coaggregation (smarTPCA)—A Novel Approach to Characterize Protein–Protein Interactions in Living Cells by Similar Isothermal Dose–Responses” (International Journal of Molecular Sciences, 2022)
